Molecules are shown by their SMILES. pIC50: −log10 of the molar value. Where only a bound is given, the exact number is not on record here.

Drawing on patent publication US20210177828A1, “TAM FAMILY KINASE /AND CSF1R KINASE INHIBITOR AND USE THEREOF” (Nanjing Transthera Biosciences Co., Ltd., priority 2018, published 2021), this text covers IC50 for 13 compounds.

Common to all, as to format: biochemical
Assay [1] deals with T1, Axl (h) (Homo sapiens, UniProt P30530).
T1 sequence (P30530 26-894): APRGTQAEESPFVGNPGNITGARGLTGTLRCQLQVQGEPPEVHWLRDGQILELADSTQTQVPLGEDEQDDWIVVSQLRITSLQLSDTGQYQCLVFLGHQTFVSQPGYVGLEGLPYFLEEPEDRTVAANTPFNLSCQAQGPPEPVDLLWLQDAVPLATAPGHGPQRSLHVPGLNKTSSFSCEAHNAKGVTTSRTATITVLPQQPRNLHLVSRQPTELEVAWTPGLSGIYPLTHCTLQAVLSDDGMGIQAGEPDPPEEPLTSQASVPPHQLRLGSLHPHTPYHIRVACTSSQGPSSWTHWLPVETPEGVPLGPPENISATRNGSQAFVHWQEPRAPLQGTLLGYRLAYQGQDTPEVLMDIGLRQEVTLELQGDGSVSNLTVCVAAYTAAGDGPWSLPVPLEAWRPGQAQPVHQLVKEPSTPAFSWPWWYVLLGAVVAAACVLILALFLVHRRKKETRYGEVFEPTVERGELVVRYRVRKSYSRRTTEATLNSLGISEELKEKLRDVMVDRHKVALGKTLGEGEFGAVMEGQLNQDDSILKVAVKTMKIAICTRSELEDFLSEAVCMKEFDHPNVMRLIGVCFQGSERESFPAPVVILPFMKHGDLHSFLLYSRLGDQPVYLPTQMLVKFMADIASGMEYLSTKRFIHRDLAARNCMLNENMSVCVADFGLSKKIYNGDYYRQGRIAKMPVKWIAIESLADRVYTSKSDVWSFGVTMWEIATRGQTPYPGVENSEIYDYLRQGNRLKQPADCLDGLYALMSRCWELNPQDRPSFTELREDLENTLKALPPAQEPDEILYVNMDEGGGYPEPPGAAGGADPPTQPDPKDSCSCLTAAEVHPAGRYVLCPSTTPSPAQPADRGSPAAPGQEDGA
Briefly: Enzymatic activity assay, Axl (h), [γ-33P]-ATP filter assay. The following applies: 10 μM ATP, 40 min room temperature; read-out: Inhibitory activity IC50 Axl(h). As to the method: (§1) Compounds were each dissolved in 100% DMSO to prepare stock solutions with a maximum concentration of 500 μM.
(§2) Compound working solutions (50×) were prepared by diluting a compound stock solution to a final concentration of 500, 150, 50, 15, 5, 1.5, 0.5, 0.15 and 0.05 μM.
An enzyme solution with a final concentration of 1.7 nM was prepared by dissolving Axl (h) enzyme in a mixture of 8 mM MOPS (pH 7.0), 0.2 mM EDTA and 250 μM KKSRGDYMTMQIG. A Mg/ATP mixture of 10 mM magnesium acetate and 10 μM [γ-^33P]-ATP was used to activate the enzymatic reaction.
(§3) A compound working solution was added to a 384-well plate, with final concentrations of 10,000, 3,000, 1,000, 300, 100, 30, 10, 3 and 1 nM, and then different enzymatic reaction solutions prepared according to the above conditions were added. The reaction solutions were incubated at room temperature for 40 min, and then 0.5% phosphoric acid solutions were added to terminate the reaction. 10 μL of the reaction solution was added dropwise to P30 filter paper, washed 4 times with a 0.425% phosphoric acid solution and once with methanol, and then placed in a scintillation counter for detection. Gray analysis was performed on the results with Image J software, and IC50 values were calculated with GraphPad 5.0 software.

The target in assay [2] is T2, Mer (h) (Homo sapiens, UniProt Q12866).
T2 sequence (Q12866 21-999): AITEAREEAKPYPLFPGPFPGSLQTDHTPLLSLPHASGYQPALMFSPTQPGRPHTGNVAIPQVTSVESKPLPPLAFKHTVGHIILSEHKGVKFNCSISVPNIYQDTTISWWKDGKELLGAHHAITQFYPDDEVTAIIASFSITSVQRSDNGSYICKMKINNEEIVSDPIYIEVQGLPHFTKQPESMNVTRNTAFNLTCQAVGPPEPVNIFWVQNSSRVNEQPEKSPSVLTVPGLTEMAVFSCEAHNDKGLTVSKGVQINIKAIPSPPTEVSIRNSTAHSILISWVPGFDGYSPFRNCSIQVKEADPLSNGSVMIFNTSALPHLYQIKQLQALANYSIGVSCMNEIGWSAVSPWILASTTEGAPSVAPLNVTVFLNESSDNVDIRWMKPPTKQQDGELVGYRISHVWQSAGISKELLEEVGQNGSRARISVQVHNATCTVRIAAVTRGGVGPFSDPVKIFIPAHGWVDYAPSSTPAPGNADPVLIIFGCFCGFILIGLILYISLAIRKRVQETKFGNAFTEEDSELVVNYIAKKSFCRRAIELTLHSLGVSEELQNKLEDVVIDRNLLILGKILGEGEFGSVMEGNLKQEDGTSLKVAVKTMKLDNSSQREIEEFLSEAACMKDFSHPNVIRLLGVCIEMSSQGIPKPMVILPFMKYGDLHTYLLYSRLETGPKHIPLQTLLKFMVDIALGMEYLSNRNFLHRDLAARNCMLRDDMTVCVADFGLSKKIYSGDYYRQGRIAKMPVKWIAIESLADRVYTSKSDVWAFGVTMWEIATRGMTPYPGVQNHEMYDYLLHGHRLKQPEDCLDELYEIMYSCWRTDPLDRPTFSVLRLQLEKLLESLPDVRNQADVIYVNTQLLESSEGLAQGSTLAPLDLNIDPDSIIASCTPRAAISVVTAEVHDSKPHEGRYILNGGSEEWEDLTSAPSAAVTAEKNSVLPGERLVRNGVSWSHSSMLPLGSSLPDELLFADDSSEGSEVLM
Put plainly: Enzymatic activity assay, Mer (h), [γ-33P]-ATP filter assay. The conditions noted are these: 10 μM ATP, 40 min room temperature; read-out: Inhibitory activity IC50 Mer(h). As to the method:
as §1, §2
An enzyme solution with a final concentration of 3.1 nM was prepared by dissolving Mer (h) enzyme in a mixture of 8 mM MOPS (pH 7.0), 0.2 mM EDTA, 30 mM NaCl and 250 μM GGMEDIYFEFMGGKKK. A Mg/ATP mixture of 10 mM magnesium acetate and 10 μM [γ-^33P]-ATP was used to activate the enzymatic reaction.
as §3

Assay [3] concerns the target CSF1R (h) (Homo sapiens, UniProt P07333). Briefly: Enzymatic activity assay, CSF1R (h), [γ-33P]-ATP filter assay. The conditions noted are these: 10 μM ATP, 40 min room temperature; read-out: Inhibitory activity IC50 CSF1R(h). As to the method: as §1, §2
An enzyme solution with a final concentration of 64 nM was prepared by dissolving CSF1R enzyme in a mixture of 8 mM MOPS (pH 7.0), 0.2 mM EDTA and 250 μM KKSRGDYMTMQIG. A Mg/ATP mixture of 10 mM magnesium acetate and 10 μM [γ-^33P]-ATP was used to activate the enzymatic reaction.
as §3

Sequence of CSF1R (h) (P07333 20-972): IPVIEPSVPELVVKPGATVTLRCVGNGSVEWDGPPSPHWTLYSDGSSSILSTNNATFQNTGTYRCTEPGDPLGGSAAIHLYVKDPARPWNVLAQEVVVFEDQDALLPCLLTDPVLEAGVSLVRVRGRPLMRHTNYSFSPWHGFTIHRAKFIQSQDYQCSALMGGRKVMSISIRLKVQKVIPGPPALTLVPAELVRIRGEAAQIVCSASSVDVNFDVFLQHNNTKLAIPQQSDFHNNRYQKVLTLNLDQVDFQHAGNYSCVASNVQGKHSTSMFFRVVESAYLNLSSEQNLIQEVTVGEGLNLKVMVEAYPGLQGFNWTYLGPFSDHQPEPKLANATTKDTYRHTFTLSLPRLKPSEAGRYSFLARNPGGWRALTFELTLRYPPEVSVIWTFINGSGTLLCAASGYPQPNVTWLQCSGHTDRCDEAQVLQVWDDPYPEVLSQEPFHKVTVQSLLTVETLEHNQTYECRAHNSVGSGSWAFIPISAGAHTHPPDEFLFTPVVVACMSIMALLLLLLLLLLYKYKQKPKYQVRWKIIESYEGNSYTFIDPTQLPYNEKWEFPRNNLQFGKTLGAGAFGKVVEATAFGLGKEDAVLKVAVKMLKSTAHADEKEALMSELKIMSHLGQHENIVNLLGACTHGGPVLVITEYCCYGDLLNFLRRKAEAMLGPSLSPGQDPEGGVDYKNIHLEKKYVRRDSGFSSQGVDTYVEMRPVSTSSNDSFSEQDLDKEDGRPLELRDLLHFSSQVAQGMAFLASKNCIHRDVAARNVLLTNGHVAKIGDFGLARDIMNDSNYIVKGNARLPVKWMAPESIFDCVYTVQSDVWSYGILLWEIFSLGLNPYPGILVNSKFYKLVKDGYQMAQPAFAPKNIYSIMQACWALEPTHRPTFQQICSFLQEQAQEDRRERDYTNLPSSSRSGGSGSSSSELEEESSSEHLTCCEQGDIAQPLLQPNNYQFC

With `COc1cc2nccc(Oc3ccc(NC(=O)c4cn(CC5CCOCC5)cc(-c5ccc(C)cc5)c4=O)nc3)c2cc1OC` [Compound 1, N-(5-((6,7-dimethoxyquinolin-4-yl)oxy)pyridin-2-yl)-4-oxo-1-((tetrahydro-2H-pyran-4-yl)methyl)-5-(p-tolyl)-1,4-dihydropyridin-3-carboxamide], the pIC50 was 8.30 in assay [1] and 8.70 in assay [2].

As to `COc1cc2nccc(Oc3ccc(NC(=O)c4nn(CC5CCOCC5)cc(-c5ccc(C)cc5)c4=O)nc3)c2cc1OC` [Compound 2, N-(5-((6,7-dimethoxyquinolin-4-yl)oxy)pyridin-2-yl)-4-oxo-1-((tetrahydro-2H-pyran-4-yl)methyl)-5-(p-tolyl)-1,4-dihydropyridazin-3-carboxamide], the pIC50 in assay [1] was 8.15; in assay [2], greater than 9.00; in assay [3] it was greater than 6.70.

`COc1cc2nccc(Oc3cnc(NC(=O)c4cn(CC5CCOCC5)cc(-c5ccc(C)cc5)c4=O)nc3)c2cc1OC` [Compound 4, N-(5-((6,7-dimethoxyquinolin-4-yl)oxy)pyrimidin-2-yl)-4-oxo-1-((tetrahydro-2H-pyran-4-yl)methyl)-5-(p-tolyl)-1,4-dihydropyridin-3-carboxamide]: the figures for the pIC50 in assay [1], in assay [2] and in assay [3] were 8.05, 8.30 and greater than 6.70, respectively.

Take `COc1cc2nccc(Oc3ccc(NC(=O)c4cn(CC5CCS(=O)(=O)CC5)cc(-c5ccc(C)cc5)c4=O)nc3)c2cc1OC` [Compound 7, N-(5-((6,7-dimethoxyquinolin-4-yl)oxy)pyridin-2-yl)-1-((1,1-dioxotetrahydro-2H-thiopyran-4-yl)methyl)-4-oxo-5-(p-tolyl)-1,4-dihydropyridin-3-carboxamide]: the pIC50 in assay [1] was 7.70; in assay [2] it was 7.30.

In the case of `COc1cc2nccc(Oc3ccc(NC(=O)c4cn(CC5CC[S+]([O-])CC5)cc(-c5ccc(C)cc5)c4=O)nc3)c2cc1OC` (centres unmarked) [Compound 8, N-(5-((6,7-dimethoxyquinolin-4-yl)oxy)pyridin-2-yl)-1-((1-oxotetrahydro-2H-thiopyran-4-yl)methyl)-4-oxo-5-(p-tolyl)-1,4-dihydropyridin-3-carboxamide], the pIC50 in assay [1] was 8.22; in assay [2], 7.14.

With `COc1cc2nccc(Oc3ccc(NC(=O)c4cn(CC5CCSCC5)cc(-c5ccc(C)cc5)c4=O)nc3)c2cc1OC` [Compound 9, N-(5-((6,7-dimethoxyquinolin-4-yl)oxy)pyridin-2-yl)-4-oxo-1-((tetrahydro-2H-thiopyran-4-yl)methyl)-5-(p-tolyl)-1,4-dihydropyridin-3-carboxamide], the pIC50 was 7.46 in assay [1] and 8.30 in assay [2].

Take `COc1cc2nccc(Oc3ccc(NC(=O)c4cc(-c5ccc(C)cc5)cn(CC5CCOCC5)c4=O)nc3)c2cc1OC` [Compound 13, N-(5-((6,7-dimethoxyquinolin-4-yl)oxy)pyridin 2yl)-2-oxo-1-((tetrahydro-2H-pyran-4-yl)methyl)-5-(p-tolyl)-1,2-dihydropyridin-3-carboxamide]: the pIC50 in assay [1] is 7.64; in assay [2], 8.10.

In the case of `COc1cc2nccc(Oc3cnc(NC(=O)c4nn(CC5CCOCC5)cc(-c5ccc(C)cc5)c4=O)nc3)c2cc1OC` [Compound 16, N-(5-((6,7-dimethoxyquinolin-4-yl)oxy)pyrimidin-2-yl)-4-oxo-1-((tetrahydro-2H-pyran-4-yl)methyl)-5-(p-tolyl)-1,4-dihydropyridazin-3-carboxamide], the pIC50 was 8.40 in assay [1], 8.52 in assay [2] and greater than 6.70 in assay [3].

On to `COc1cc2nccc(Oc3ccc(NC(=O)c4cn(C5CCOCC5)cc(-c5ccc(C)cc5)c4=O)nc3)c2cc1OC` [Compound 19, N-(5-((6,7-dimethoxyquinolin-4-yl)oxy)pyridin-2-yl)-4-oxo-1-(tetrahydro-2H-pyran-4-yl)-5-(p-tolyl)-1,4-dihydropyridin-3-carboxamide], for which the pIC50 was 7.92 in assay [1] and 8.40 in assay [2].

Consider `COc1cc2nccc(Oc3ccc(NC(=O)c4cn(CC5CCOCC5)cc(-c5ccc(C)cc5)c4=O)nn3)c2cc1OC` [Compound 24, N-(6-((6,7-dimethoxyquinolin-4-yl)oxy)pyridazin-3-yl)-4-oxo-1-((tetrahydro-2H-pyran-4-yl)methyl)-5-(p-tolyl)-1,4-dihydropyridin-3-carboxamide], for which the pIC50 was 8.05 in assay [1] and 7.47 in assay [2].

Turning to `COc1cc2nccc(Oc3ccc(NC(=O)c4cn(CC5CCOCC5)c5ccccc5c4=O)nc3)c2cc1OC` [Compound 25, N-(5-((6,7-dimethoxyquinolin-4-yl)oxy)pyridin-2-yl)-4-oxo-1-((tetrahydro-2H-pyran-4-yl)methyl)-1,4-dihydroquinolin-3-carboxamide], the values for the pIC50 in assay [1] and in assay [2] were 7.96 and 7.82, respectively.

Consider `Cc1ccc(-c2cn(C3CCOCC3)nc(C(=O)Nc3ccc(Oc4ccnc5cc6c(cc45)OCO6)cn3)c2=O)cc1` [Compound 29, N-(5-([1,3]dioxolo[4,5-g]quinolin-8-yloxy)pyridin-2-yl)-4-oxo-1-(tetrahydro-2H-pyran-4-yl)-5-(p-tolyl)-1,4-dihydropyridazin-3-carboxamide], for which the pIC50 in assay [1] was 7.55; in assay [2], 7.32.

In the case of `Cc1ccc(-c2cn(C3CCOCC3)nc(C(=O)Nc3ccc(Oc4ccnc5cc6c(cc45)OCCO6)cn3)c2=O)cc1` [Compound 30, N-(5-((2,3-dihydro-[1,4]dioxino[2,3-g]quinolin-9-yl)oxy)pyridin-2-yl)-4-oxo-1-(tetrahydro-2H-pyran-4-yl)-5-(p-tolyl)-1,4-dihydropyridazin-3-carboxamide], the pIC50 is 7.41 in assay [1] and 7.70 in assay [2].
